Data as given in PMC2867956, “Interdomain Interactions Control Ca^2+-Dependent Potentiation in the Cation Channel TRPV4” (PLoS ONE, 2010).
Entries after “also recorded” stand apart in the source; their conditions may differ. Like-named read-outs stand apart in the source and are kept apart here. No end group written: not given here.

Legend:
[1] = test system: TRPV4 mutant WIA; test: Whole-cell patch clamp, TRPV4 mutant WIA; conditions: 4α-PMA 1 µM, nominally Ca^2+-free; -100 and +100 mV, p = 0.014 and 0.023; n = 8
Protocol: (§4) Patch clamp recordings were performed on HEK293 cells in the whole cell configuration. Cells were clamped at a potential of −20 mV, and current-voltage (I–V) relations were obtained from voltage ramps from −100 mV to +100 mV. The standard extracellular solution contained 140 mM NaCl, 5 mM CsCl, 2 mM CaCl2, 1 mM MgCl2, 10 mM glucose, and 10 mM HEPES (pH 7.4 with NaOH). In nominally Ca^2+-free solutions, Ca^2+ was omitted. The standard intracellular solution contained 110 mM cesium methanesulfonate, 25 mM CsCl, 2 mM MgCl2, 0.362 mM CaCl2, 1 mM EGTA, and 30 mM HEPES (pH 7.2 with CsOH) with a calculated [Ca^2+] of 100 nM.
(§5) Patch clamp recordings were performed on HEK293 cells in the whole cell configuration using an EPC10 amplifier and Pulse software (HEKA, Lamprecht, Germany). […] Cells were clamped at a potential of –20 mV, and current-voltage (I-V) relations were obtained from voltage ramps from –100 mV to +100 mV with a duration of 400 ms applied every 4 seconds. Ramp data were acquired with a sampling rate of 20 kHz after filtering at 4 kHz. […] The standard intracellular solution contained 110 mM cesium methanesulfonate, 25 mM CsCl, 2 mM MgCl2, 0.362 mM CaCl2, 1 mM EGTA, and 30 mM HEPES (pH 7.2 with CsOH) with a calculated [Ca^2+] of 100 nM (MaxChelator, Chris Patton, Stanford, USA). […]

[2] = test system: CFP-TRPV4-YFP; conditions: HEK293 cells, Ca^2+-containing buffer; 4α-PMA data not shown; concomitant increase in donor fluorescence
[3] = test system: TRPV4 mutant KRA; test: Whole-cell patch clamp, TRPV4 mutant KRA; conditions: 4α-PMA 1 µM, nominally Ca^2+-free; -100 and +100 mV, p = 0.012 and 0.007; n = 5
Protocol: as §4, §5

[4] = test system: wt TRPV4; test: Whole-cell patch clamp, wild type TRPV4; format: cell-based, human
Excerpt: (§1) (See Methods S1 for details).

[5] = target: CaM (UniProt P0DP23); test: Fluorescence polarization, CaM binding to carboxyfluorescein-labeled TRPV4 peptides; conditions: 50 mM Tris pH 7.5, 100 mM KCl, 0.1% BSA, triplicate
Protocol: (§2) Protein interaction experiments were performed in buffers containing 50 mM Tris, pH 7.5, 100 mM KCl, 0.1% BSA and calcium at the indicated concentrations. Calcium concentrations below 50 µM were buffered with HEDTA, EGTA or EDTA at a buffer concentration of 10 mM. CaM concentrations were 10 µM or as indicated; the tracer peptide concentration was 100 nM. Fluorescence anisotropy was measured in a 384-well black multititer plate (Fluotrac 200, Greiner) using a Fusion alpha FP instrument (PerkinElmer) at 1 s reading time per well. Fluorescence polarization (FP) was calculated according to: [drawing 1] with Ipar and Iperp as the fluorescence emission intensities in planes parallel and perpendicular to the excitation plane. FP signals are given as mean±SEM of triplicate measurements in milli-P (mP) units.
(0.11 MB TIF) Click here for additional data file.

[6] = test system: TRPV4; test: FRET acceptor bleaching, full-length TRPV4 N and C termini in HEK293 cells; format: cell-based, human; conditions: extrapolated donor increase at full acceptor photobleaching; unstimulated HEK293; n = 7 (CFP-TRPV4-YFP), 20 and 13 as printed 'respectively'; p<0.0001 versus control
Excerpt: as §1

[7] = test system: TRPV4 C terminus peptide library; test: Peptide library overlay, TRPV4 C terminus; format: binding, human; conditions: 20-mer peptides on filter, 100 nM biotinylated protein
Excerpt: (0.31 MBTIF) Click here for additional data file.

[8] = test system: TRPV4 C2 fragment; test: AlphaScreen interdomain interaction with C2; format: binding, human
Excerpt: First, we did a complementation experiment to test whether a CaM molecule that binds to the C2 fragment of TRPV4 through its C-lobe can form an additional interaction with another CaM binding domain thus forming a ternary complex. […] We used an AlphaScreen-based proximity assay (Fig. 2, Methods S1) in which the acceptor beads were coated with the C-terminal fragment C2-Flag, and the donor beads either with the N-terminal CaM binding peptide P2-biotin, or, as a negative control, with C2-biotin. The interaction between the proteins was measured in the presence of increasing CaM concentrations in 100 µM Ca^2+ or 1 mM EGTA (Fig. 3A).
In an AlphaScreen interaction experiment, donor and acceptor beads were incubated with 10 nM C2-biotin and N2-Flag at concentrations ranging from 30 pM to 1.5 µM, respectively (Fig. 3C).
(§3) Proteins were expressed in E. coli, affinity purified and biotinylated if applicable (for details see Methods S1). For protein interaction measurements, a proximity assay system based on the AlphaScreen technology (PerkinElmer) was used (see Methods S1). Briefly, streptavidin-coated AlphaScreen donor and anti-Flag acceptor beads at a final concentration of 16.7 µg/ml were incubated in a 384-well plate format (OptiPlate-384, PerkinElmer) with C2-GST-biotin or P2-biotin and the respective Flag-tagged interaction protein at concentrations of 10 nM, if not otherwise indicated. Assay buffer conditions were 50 mM Tris, pH 7.4, 100 mM KCl, and 0.1% BSA. After incubation for 90 min at room temperature, the AlphaScreen output signal was recorded in a Fusion alpha FP instrument (PerkinElmer) at 2 s reading time per well. AlphaScreen signals are given as mean±SEM in counts per second (cps) units.
The expression plasmids containing the cDNA for CaM or TRPV4 fragments in the pGEX-2TK vector (Amersham) or a modified derivative that contains an in-frame Flag epitope 5’ to the multiple cloning site were transformed into the BL21(DE3) Escherichia coli host, and protein expression was induced by 200 mg/ml IPTG at an OD600 of 0.6. […] The GST-Flag fusion proteins were eluted with 50 mM Tris, pH 8.5, 100 mM KCl, and 10 mM glutathione. […] The purity of all proteins was confirmed by SDS-polyacrylamide gel electrophoresis and Coomassie staining, and the protein concentration determined by the method according to Bradford using an albumin concentration standard. […]
To establish an improved interaction assay, that allows the quantification of protein interactions on a medium to high throughput scale, a commercially available proximity assay system based on the AlphaScreen (Amplified Luminescent Proximity Homogenous Assay) technology (PerkinElmer) was modified. […]

[9] = test system: TRPV4 C2 fragment; test: AlphaScreen-based CaM interaction assay with C2; format: binding, human
Protocol: as §3
The expression plasmids containing the cDNA for CaM or TRPV4 fragments in the pGEX-2TK vector (Amersham) or a modified derivative that contains an in-frame Flag epitope 5’ to the multiple cloning site were transformed into the BL21(DE3) Escherichia coli host, and protein expression was induced by 200 mg/ml IPTG at an OD600 of 0.6. […] The GST-Flag fusion proteins were eluted with 50 mM Tris, pH 8.5, 100 mM KCl, and 10 mM glutathione. The GST-fusion proteins intended for subsequent biotinylation were subjected to an additional wash step with 50 mM HEPES, pH 7.4, 100 mM KCl and eluted with 50 mM HEPES, pH 8.5, 100 mM KCl, and 10 mM glutathione. The purity of all proteins was confirmed by SDS-polyacrylamide gel electrophoresis and Coomassie staining, and the protein concentration determined by the method according to Bradford using an albumin concentration standard. Biotinylation was performed using a 10-fold molar excess of biotinamidocaproate N-hydroxysuccinimide ester (Sigma). After incubation at 4 °C for 12 h, the reaction was stopped by addition of a 10-fold molar excess of NH4Cl and unbound biotin ester removed by extensive dialysis against 50 mM Tris, pH 7.4, 100 mM KCl.
To establish an improved interaction assay, that allows the quantification of protein interactions on a medium to high throughput scale, a commercially available proximity assay system based on the AlphaScreen (Amplified Luminescent Proximity Homogenous Assay) technology (PerkinElmer) was modified. The assay principle had been originally developed as an enhanced immunoassay and initially termed luminescent oxygen channeling immunoassay (LOCI [1]). […] The resulting emission at a wavelength of 370 nm is further transformed by fluorophores within the bead into a final emission between 520 nm and 620 nm that can be detected by a photomultiplier. […]

[10] = test system: TRPV4; test: Whole-cell patch clamp, effect of CaM/CaM mutant overexpression on Ca^2+-dependent TRPV4 current increase; format: cell-based, human
Excerpt: This mutant may bind and displace endogenous CaM, but, owing to the N-terminal mutation, cannot fully substitute for the wild type molecule.
as §1

[11] = target: P5 peptide (TRPV4 C-terminal CaM binding site); test: Fluorescence polarization, binding of CaM and isolated CaM lobes to labeled P5; parameters: species or system human; conditions: binding to fluorophore-labeled P5 at 100 µM Ca^2+; tracer 100 nM; pH 7.5
Protocol: We analyzed the properties of the complex between CaM and C-terminal fragments of the human TRPV4 ortholog, and investigated the structural determinants within the CaM molecule that are involved in binding.
as §2, with “Tracer peptides were synthesized and coupled to carboxyfluorescein (Dr. Sven Rothemund, Core unit peptide technologies, IZKF, Leipzig). Protein” for “Protein”

[12] = labeled peptide 100 nM, CaM 10 µM or as indicated, value is Ca^2+ concentration, read-out: Ca^2+ concentration at half-maximal CaM binding (Ca^2+-dependence, EC50)

## CCCCCCCCCCCCCC(=O)O[C@@H]1[C@@H](C)[C@@]2(O)[C@@H](C=C(CO)C[C@@]3(O)C(=O)C(C)=C[C@@H]23)[C@@H]2C(C)(C)[C@]12OC(C)=O [4α-PMA]
[1]
  current activated by 4α-PMA versus wild type: Significantly larger currents; also recorded: significantly larger than the wild type
[2]
  change in FRET fluorescence on stimulation: transient decreases in the FRET
[3]
  current activated by 4α-PMA versus wild type: Significantly larger currents; also recorded: significantly larger than the wild type
[4]; 4α-PMA 1 µM, nominally Ca^2+-free, wild type, n = 9
  current activated by 4α-PMA: slow, small increase in currents
[4]; nominally Ca^2+-free solutions, HEK293 cells
  activation of TRPV4: weak and slow

## CC(C)C[C@H](NC(=O)[C@H](CCCNC(=N)N)NC(=O)CNC(=O)[C@@H](NC(=O)[C@@H](NC(=O)[C@H](Cc1c[nH]cn1)NC(=O)[C@H](CO)NC(=O)[C@H](Cc1ccccc1)NC(=O)CN)[C@@H](C)O)C(C)C)C(=O)N[C@@H](CCCNC(=N)N)C(=O)N[C@@H](CCCNC(=N)N)C(=O)N[C@@H](CC(=O)O)C(=O)N[C@@H](CCCNC(=N)N)C(=O)N[C@@H](Cc1c[nH]c2ccccc12)C(=O)N[C@@H](CO)C(=O)N[C@@H](CO)C(=O)N[C@H](C(=O)N[C@H](C(=O)N1CCC[C@H]1C(=O)N[C@@H](CCCNC(=N)N)C(=O)N[C@H](C(=O)N[C@H](C(=O)N[C@@H](CCC(=O)O)C(=O)O)C(C)C)C(C)C)C(C)C)C(C)C [P5]
[5]; [12]
  EC50: 3.2 µM

## C-V4-Y: TRPV4 with CFP and YFP fused to the N- and C termini
[6]
  FRET efficiency: 14.6±1.1

## GRPNLRMKFQGAFRKGVPNP [P1]
[5]; [12]
  EC50: 3.6 µM

## N3: N-terminal TRPV4 fragment, residues 114-161, includes P2 (RHHSSDNKRWRKKIIEKQPQSPKAPAPQPPPILKVFNRPILFDIVSRG; UniProt Q9HBA0 114-161, looked up, fragment)
[7]
  overlay binding site, C terminus library: strong interaction was found with a region that corresponds to the CaM binding peptide P5
[8]; 10 nM C2-biotin, N2-Flag 30 pM to 1.5 µM, N3 data not shown
  interaction with C2: interdomain interaction could also be shown

## RSFPVFLRKAFRSGEMVTVGKSSD [P4]
[5]; [12]
  EC50: 7.3 µM
[5]; tracer peptide 100 nM, CaM 0.1 nM to 10 µM, read-out: CaM binding EC50
  EC50: 5 µM

## SSDNKRWRKKIIEKQPQSPK [P2]
[8]; 100 µM Ca^2+ or 1 mM EGTA, absence of CaM (C2: absence or presence of CaM)
  interaction with C2-Flag: strong constitutive interaction
[8]; no CaM, Ca^2+ 10 nM to 10 mM
  Ca^2+-dependence of P2/C2 interaction: already present at 0 Ca^2+ and essentially Ca^2+-insensitive over a wide range of Ca^2+ concentrations

## calmodulin [CaM]
[9]; AlphaScreen, C2-biotin with CaM-Flag or mutant, 10 nM each, value is Ca^2+ concentration, 50 mM Tris pH 7.4, 100 mM KCl, 0.1% BSA, 90 min room temperature, n = 3 independent experiments in triplicate, read-out: EC50 Ca^2+ concentration for C2 interaction (half maximal binding)
  EC50: 8.8 ± 1 µM
[9]; CaM-biotin and C2-Flag in 1 mM EGTA
  AlphaScreen signal of CaM/C2 in EGTA: No signal was detected
[9]; Ca^2+-dependence of C2 binding, common fit for CaM, CaM12 and CaM34, n = 3
  Hill coefficient (common): 2.0
[9]; Ca^2+-free buffers for CaM
  binding to TRPV4: neither binds to CaM in Ca^2+-free buffers
[10]; HEK293 cells coexpressing TRPV4, 4α-PMA in Ca^2+-free bath, then 2 mM Ca^2+, +100 and -100 mV, CaM12 p = 0.013 and 0.007 compared to CaM overexpression
  current increase upon addition of Ca^2+ on overexpression: slightly increased the TRPV4 response to Ca^2+, but the increase is not statistically significant
[10]; nominally Ca^2+-free solution, data not shown
  effect on spontaneous or 4α-PMA-activated currents: had no effect on spontaneous currents, or currents activated by 4α-PMA
[11]
  Kd: 0.4 µM
